# ChEMBL document CHEMBL1201862, “PubChem BioAssay data set” (2004)
#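 The compound was tested at five concentrations on cells cultured in 96-well plates, with a 48-hour exposure period. Here, GI50 denotes the concentration required for 50% inhibition of growth.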 Active and inactive are the calls of the source. No stated cut-off is given here; in the data, active = GI50 up to about 1.1 µM and inactive = higher.
# Columns and labels:
# Assay in all cases: growth of human tumour cells (NCI), 48 h
# 786-0 = system: 786-0
# A498 = system: A498
# A549 = system: A549
# ACHN = system: ACHN
# CAKI-1 = system: CAKI-1
# CCRF-CEM = system: CCRF-CEM
# COLO 205 = system: COLO 205
# DLD-1 = system: DLD-1
# DMS-114 = system: DMS-114
# DMS-273 = system: DMS-273
# EKVX = system: EKVX
# HCT-116 = system: HCT-116
# HCT-15 = system: HCT-15
# HL-60 = system: HL-60
# HOP-18 = system: HOP-18
# HOP-62 = system: HOP-62
# HOP-92 = system: HOP-92
# HT-29 = system: HT-29
# IGROV-1 = system: IGROV-1
# K562 = system: K562
# KM-20L2 = system: KM-20L2
# KM12 = system: KM12
# LOX IMVI = system: LOX IMVI
# LXFL 529 = system: LXFL 529
# M14 = system: M14
# MOLT-4 = system: MOLT-4
# Malme-3M = system: Malme-3M
# NCI-H226 = system: NCI-H226
# NCI-H460 = system: NCI-H460
# NCI-H522 = system: NCI-H522
# OVCAR-3 = system: OVCAR-3
# OVCAR-4 = system: OVCAR-4
# OVCAR-5 = system: OVCAR-5
# OVCAR-8 = system: OVCAR-8
# RPMI-8226 = system: RPMI-8226
# RXF 393 = system: RXF 393
# RXF 631 = system: RXF 631
# SF-268 = system: SF-268
# SF-295 = system: SF-295
# SF-539 = system: SF-539
# SK-MEL-28 = system: SK-MEL-28
# SK-MEL-5 = system: SK-MEL-5
# SN12C = system: SN12C
# SNB-19 = system: SNB-19
# SNB-75 = system: SNB-75
# SNB-78 = system: SNB-78
# SW-620 = system: SW-620
# TK-10 = system: TK-10
# U-251 = system: U-251
# UACC-257 = system: UACC-257
# UACC-62 = system: UACC-62
# UO-31 = system: UO-31
# XF498 = system: XF498
# M19-MEL = system: M19-MEL
# NCI-H23 = system: NCI-H23
# SK-MEL-2 = system: SK-MEL-2
# SK-OV-3 = system: SK-OV-3
# SR = system: SR
# HCC 2998 = system: HCC 2998
structure (smiles),measurement,setting,value
COc1cc(/C=C\c2ccncc2)cc(OC)c1OC,GI50,786-0,> 100 µM (inactive)
same,GI50,A498,> 100 µM (inactive)
same,GI50,A549,69 µM (inactive)
same,GI50,ACHN,> 100 µM (inactive)
same,GI50,CAKI-1,80 µM (inactive)
same,GI50,CCRF-CEM,> 100 µM (inactive)
same,GI50,COLO 205,42.1 µM (inactive)
same,GI50,DLD-1,> 100 µM (inactive)
same,GI50,DMS-114,57.3 µM (inactive)
same,GI50,DMS-273,63.8 µM (inactive)
same,GI50,EKVX,70.8 µM (inactive)
same,GI50,HCT-116,99.1 µM (inactive)
same,GI50,HCT-15,55.7 µM
same,GI50,HL-60,24.1 µM (inactive)
same,GI50,HOP-18,> 100 µM (inactive)
same,GI50,HOP-62,> 100 µM (inactive)
same,GI50,HOP-92,36.5 µM (inactive)
same,GI50,HT-29,40.6 µM (inactive)
same,GI50,IGROV-1,> 100 µM (inactive)
same,GI50,K562,27.3 µM (inactive)
same,GI50,KM-20L2,65.3 µM (inactive)
same,GI50,KM12,48.1 µM (inactive)
same,GI50,LOX IMVI,44.2 µM (inactive)
same,GI50,LXFL 529,67.6 µM (inactive)
same,GI50,M14,42.9 µM (inactive)
same,GI50,MOLT-4,59.4 µM (inactive)
same,GI50,Malme-3M,> 100 µM (inactive)
same,GI50,NCI-H226,> 100 µM (inactive)
same,GI50,NCI-H460,46.6 µM (inactive)
same,GI50,NCI-H522,43.3 µM (inactive)
same,GI50,OVCAR-3,> 100 µM (inactive)
same,GI50,OVCAR-4,> 100 µM (inactive)
same,GI50,OVCAR-5,63.5 µM (inactive)
same,GI50,OVCAR-8,> 100 µM (inactive)
same,GI50,RPMI-8226,38.3 µM (inactive)
same,GI50,RXF 393,> 100 µM (inactive)
same,GI50,RXF 631,64.7 µM (inactive)
same,GI50,SF-268,> 100 µM (inactive)
same,GI50,SF-295,54.3 µM (inactive)
same,GI50,SF-539,> 100 µM (inactive)
same,GI50,SK-MEL-28,> 100 µM (inactive)
same,GI50,SK-MEL-5,57.5 µM (inactive)
same,GI50,SN12C,> 100 µM (inactive)
same,GI50,SNB-19,> 100 µM (inactive)
same,GI50,SNB-75,37.8 µM (inactive)
same,GI50,SNB-78,> 100 µM (inactive)
same,GI50,SW-620,43.2 µM (inactive)
same,GI50,TK-10,> 100 µM (inactive)
same,GI50,U-251,> 100 µM (inactive)
same,GI50,UACC-257,> 100 µM (inactive)
same,GI50,UACC-62,59.2 µM (inactive)
same,GI50,UO-31,72.3 µM (inactive)
same,GI50,XF498,29.1 µM (inactive)
CCCNCc1nc2ccc(Br)cc2c(=O)n1CCC,GI50,786-0,15.8 µM (inactive)
same,GI50,A498,18.1 µM (inactive)
same,GI50,A549,16.6 µM (inactive)
same,GI50,ACHN,16.1 µM (inactive)
same,GI50,CCRF-CEM,3.27 µM (inactive)
same,GI50,COLO 205,14.6 µM (inactive)
same,GI50,DLD-1,8.09 µM (inactive)
same,GI50,DMS-114,10.8 µM (inactive)
same,GI50,DMS-273,12.4 µM (inactive)
same,GI50,EKVX,19.1 µM (inactive)
same,GI50,HCT-116,9.98 µM (inactive)
same,GI50,HCT-15,14.2 µM
same,GI50,HL-60,6.53 µM (inactive)
same,GI50,HOP-18,18.1 µM (inactive)
same,GI50,HOP-62,22 µM (inactive)
same,GI50,HT-29,15.1 µM (inactive)
same,GI50,IGROV-1,15.6 µM (inactive)
same,GI50,K562,8.04 µM (inactive)
same,GI50,KM-20L2,19.2 µM (inactive)
same,GI50,KM12,15.1 µM (inactive)
same,GI50,LOX IMVI,4.93 µM (inactive)
same,GI50,LXFL 529,12.6 µM (inactive)
same,GI50,M14,14.1 µM (inactive)
same,GI50,M19-MEL,13.2 µM (inactive)
same,GI50,MOLT-4,7.8 µM (inactive)
same,GI50,Malme-3M,13.5 µM (inactive)
same,GI50,NCI-H226,12.5 µM (inactive)
same,GI50,NCI-H23,13.4 µM (inactive)
same,GI50,NCI-H522,13.4 µM (inactive)
same,GI50,OVCAR-3,18.4 µM (inactive)
same,GI50,OVCAR-4,14.6 µM (inactive)
same,GI50,OVCAR-8,13.4 µM (inactive)
same,GI50,RPMI-8226,3.67 µM (inactive)
same,GI50,RXF 393,15.4 µM (inactive)
same,GI50,RXF 631,7.05 µM (inactive)
same,GI50,SF-268,13.6 µM (inactive)
same,GI50,SF-295,16.9 µM (inactive)
same,GI50,SF-539,15.8 µM (inactive)
same,GI50,SK-MEL-28,15.3 µM (inactive)
same,GI50,SK-MEL-2,12.4 µM (inactive)
same,GI50,SK-MEL-5,7.55 µM (inactive)
same,GI50,SK-OV-3,18.7 µM (inactive)
same,GI50,SN12C,13.6 µM (inactive)
same,GI50,SNB-19,16.8 µM (inactive)
same,GI50,SNB-75,17.1 µM (inactive)
same,GI50,SNB-78,17.5 µM (inactive)
same,GI50,SR,11.7 µM (inactive)
same,GI50,SW-620,13.7 µM (inactive)
same,GI50,U-251,13.3 µM (inactive)
same,GI50,UACC-257,13.3 µM (inactive)
same,GI50,UACC-62,6.93 µM (inactive)
same,GI50,UO-31,16.2 µM (inactive)
same,GI50,XF498,16.9 µM (inactive)
COc1cc(/C=N/c2nncs2)ccc1O,GI50,786-0,> 100 µM (inactive)
same,GI50,A498,> 100 µM (inactive)
same,GI50,A549,> 100 µM (inactive)
same,GI50,ACHN,> 100 µM (inactive)
same,GI50,CAKI-1,> 100 µM (inactive)
same,GI50,CCRF-CEM,> 100 µM (inactive)
same,GI50,DMS-114,> 100 µM (inactive)
same,GI50,DMS-273,> 100 µM (inactive)
same,GI50,EKVX,> 100 µM (inactive)
same,GI50,HCC 2998,> 100 µM (inactive)
same,GI50,HCT-116,> 100 µM (inactive)
same,GI50,HCT-15,> 100 µM
same,GI50,HL-60,> 100 µM (inactive)
same,GI50,HOP-18,> 100 µM (inactive)
same,GI50,HOP-62,> 100 µM (inactive)
same,GI50,HOP-92,> 100 µM (inactive)
same,GI50,HT-29,> 100 µM (inactive)
same,GI50,IGROV-1,> 100 µM (inactive)
same,GI50,K562,> 100 µM (inactive)
same,GI50,KM-20L2,> 100 µM (inactive)
same,GI50,KM12,> 100 µM (inactive)
same,GI50,LXFL 529,> 100 µM (inactive)
same,GI50,M14,> 100 µM (inactive)
same,GI50,M19-MEL,> 100 µM (inactive)
same,GI50,MOLT-4,> 100 µM (inactive)
same,GI50,Malme-3M,> 100 µM (inactive)
same,GI50,NCI-H226,> 100 µM (inactive)
same,GI50,NCI-H23,> 100 µM (inactive)
same,GI50,NCI-H460,> 100 µM (inactive)
same,GI50,OVCAR-4,> 100 µM (inactive)
same,GI50,OVCAR-5,> 100 µM (inactive)
same,GI50,OVCAR-8,> 100 µM (inactive)
same,GI50,RPMI-8226,> 100 µM (inactive)
same,GI50,RXF 393,> 100 µM (inactive)
same,GI50,RXF 631,> 100 µM (inactive)
same,GI50,SF-268,> 100 µM (inactive)
same,GI50,SF-295,> 100 µM (inactive)
same,GI50,SF-539,> 100 µM (inactive)
same,GI50,SK-MEL-28,> 100 µM (inactive)
same,GI50,SK-MEL-2,> 100 µM (inactive)
same,GI50,SK-MEL-5,> 100 µM (inactive)
same,GI50,SK-OV-3,> 100 µM (inactive)
same,GI50,SN12C,> 100 µM (inactive)
same,GI50,SNB-19,> 100 µM (inactive)
same,GI50,SNB-75,> 100 µM (inactive)
same,GI50,SNB-78,> 100 µM (inactive)
same,GI50,SR,> 100 µM (inactive)
same,GI50,SW-620,> 100 µM (inactive)
same,GI50,TK-10,> 100 µM (inactive)
same,GI50,U-251,> 100 µM (inactive)
same,GI50,UACC-257,> 100 µM (inactive)
same,GI50,UACC-62,> 100 µM (inactive)
same,GI50,UO-31,> 100 µM (inactive)
same,GI50,XF498,> 100 µM (inactive)
